# Test results taken from patent publication US20240027453A1, “METHOD FOR DETECTION AND QUANTITATIVE MONITORING OF INFECTIONS WITH HERPESVIRUSES” (The Trustees of Princeton University, priority 2020, published 2024).
# Like-named read-outs stand apart in the source and are kept apart here.
# System: HCMV
# Assay type: cell-based
# Experimental: In example herpesvirus PRM assay methods shown herein, cell pellets were lysed in 2% SDS, 100 mM NaCl, 0.5 mM EDTA, 50 mM Tris, pH 8.2, and 50 μg of protein was reduced and alkylated with 25 mM TCEP and 50 mM CAM respectively for 20 min at 70° C. Proteins were then precipitated via methanol chloroform precipitation (Wessel & Flugg, Anal Biochem. 138(1):141-143, 1984), resuspended in 50 mM HEPES, pH 8.2 and digested overnight with trypsin (50:1 protein:enzyme w/w ratio). Digested peptides were desalted by SDB-RPS StageTip as previously described (Lum et al., Cell Syst., 7(6):[…], 2018; Greco et al., Methods Mol Biol 1410:39-63, 2016; Federspiel & Cristea, Methods Mol Biol., 1977:115-143, 2019).
# Peptides (1.0 μg on column) were analyzed by LC-MS/MS using a Dionex Ultimate 3000 UHPLC coupled online to an EASYSpray ion source and a Q Exactive HF. Peptides were separated on an EASYSpray C18 column (75 μm×25 cm) heated to 50° C. using a linear gradient of 5% B to 32% B over 60 min at a flow rate of 250 nL/min and were ionized at 1.7 kv. Mobile phase A consisted of 0.1% FA in H2O and mobile phase B consisted of 0.1% FA, 2.9% H2O in ACN.
# The PRM method was controlled by a peptide inclusion list with retention time windows of 6 min for selected precursor ions.
# The PRM assay was developed and analyzed using the open-source software Skyline (Maclean et al., Bioinformatics 26(7):966-968, 2010). Summed area under the curve of 3-4 transitions per peptide was used for quantitation. Targeted peptides were normalized to host protein loading control peptides. Peptide values for each sample were scaled to the average of each peptide across all runs. The average of multiple peptides was used as the inferred value for the protein measurement when more than one peptide was quantified (Federspiel et al., PLoS Biol. 17(9):e3000437. Doi: 10.1371/journal.pbio.3000437). PRM quantitation data were graphed using the Python Seaborn and Matplotlib libraries.
# MRC5 primary human fibroblasts (HFs) (ATCC CCL-171) were used as the model system for HSV-1 and HCMV infections and were cultured in complete growth medium (DMEM supplemented with 10% fetal bovine serum and 1% penicillin-streptomycin antibiotics) at 37° C. and 5% CO2. iSLK.219 cells harboring latent KSHV (a gift from Dr. Britt Glaunsinger, University of California, Berkeley) were grown in complete growth medium supplemented with 500 μg/ml hygromycin (ThermoFisher Scientific, 10687010) at 37° C. and 5% CO2. All cells were used for experiments within a maximum of 10 passages.
# Wild type HSV-1 strain 17+ (a gift from Beate Sodeik, Hannover Medical School, Hannover, Germany) was propagated as previously described (Diner et al., 2015). Briefly, PO stocks were generated by electroporating pBAC-HSV-1 into U-2 OS cells. […] In a similar manner, wild type HCMV strain AD169 was produced from BAC electroporation into HFs and working stocks were propagated by infecting HFs at a low level. In both cases, cell-associated virus was released by sonication, combined with supernatant virus, then concentrated by ultracentrifugation (20,000 rpm, 2 hours, 4° C. with SW28 swinging bucket rotor [Beckman Coulter]) over a 10% ficoll (HSV-1) or 20% sorbitol (HCMV) cushion. Virus stock titers were determined by plaque assay for HSV-1 or tissue culture infectious dose (TCID50) for HCMV and infections were performed at a multiplicity of infection (MOI) of 3.
# 12 hours prior to virus infection or reactivation, cells were treated with either the small molecule drug or DMSO/PBS control at an equivalent volume. […] For infection cycles lasting longer than 24 hours, small molecule drugs were re-added to the cell culture medium every 24 hours. Upon collection, cells were rinsed with PBS, scraped into a microcentrifuge tube, pelleted by centrifugation, and rinsed again with PBS.
smiles,measurement,setting,value
Nc1c(S(=O)(=O)c2ccccc2)c2nc3ccccc3nc2n1-c1ccc(F)cc1 [CAY10602],HCMV UL122 (IE2) and UL123 (IE1) levels,,decreases
same,levels of HCMV viral immediate early proteins,,reduced
same,HCMV UL123 levels,"24 HPI, […] CAY10602, 50 μM trans-Resveratrol",unchanged
same,HCMV UL26 levels,"48 HPI, […] CAY10602, 50 μM trans-Resveratrol",decreased
same,HCMV viral protein production,by 48 HPI,global reduction
same,HCMV UL99 levels,"by 72 HPI, […] CAY10602, 50 μM trans-Resveratrol",robustly decreased
same,global decrease in HCMV viral protein levels,"by 120 HPI, […] CAY10602, 50 μM trans-Resveratrol",~70%
same,CVC2 (P16726) protein level,"timepoint 24, DE",0.01787
same,DBP (P17147) protein level,"timepoint 24, DE",0.1756
same,HELI (P16736) protein level,"timepoint 24, DE",0.3389
same,IR01 (P09710) protein level,"timepoint 24, DE",0.274
same,NEC2 (P16791) protein level,"timepoint 24, DE",0.03969
same,RIR1 (P16782) protein level,"timepoint 24, DE",0.09397
same,TRM1 (P16724) protein level,"timepoint 24, DE",0.04087
same,UL4 (P17146) protein level,"timepoint 24, DE",0.03736
same,UL26 (P16762) protein level,"timepoint 24, DE",0.07273
same,UL32 (P08318) protein level,"timepoint 24, DE",0.01952
same,UL34 (P16812) protein level,"timepoint 24, DE",0.1137
same,UL38 (P16779) protein level,"timepoint 24, DE",0.9755
same,UL44 (P16790) protein level,"timepoint 24, DE",0.06474
same,UL48 (P16785) protein level,"timepoint 24, DE",0.01175
same,UL54 (P08546) protein level,"timepoint 24, DE",0.6089
same,UL71 (P16823) protein level,"timepoint 24, DE",0.439
same,UL78 (P16751) protein level,"timepoint 24, DE",0.9755
same,UL84 (P16727) protein level,"timepoint 24, DE",0.1012
same,UL95 (P16801) protein level,"timepoint 24, DE",0.07625
same,UL96 (P16787) protein level,"timepoint 24, DE",0.387
same,UL97 (P16788) protein level,"timepoint 24, DE",0.2812
same,UL98 (P16789) protein level,"timepoint 24, DE",0.3005
same,UL102 (P16827) protein level,"timepoint 24, DE",0.5343
same,UL104 (P16735) protein level,"timepoint 24, DE",0.03903
same,UL112/UL113 (P17151) protein level,"timepoint 24, DE",0.5236
same,UL114 (P16769) protein level,"timepoint 24, DE",0.6704
same,UL119/UL118 (P16739) protein level,"timepoint 24, DE",0.2198
same,UL128 (P16837) protein level,"timepoint 24, DE",0.1113
same,US8 (P09730) protein level,"timepoint 24, DE",1.057
same,US9 (P09729) protein level,"timepoint 24, DE",0.627
same,US12 (P09721) protein level,"timepoint 24, DE",1.672
same,US13 (P09720) protein level,"timepoint 24, DE",0.6838
same,US14 (P09719) protein level,"timepoint 24, DE",0.3957
same,US18 (P69334) protein level,"timepoint 24, DE",0.5335
same,US22 (P09722) protein level,"timepoint 24, DE",0.3966
same,US23 (P09701) protein level,"timepoint 24, DE",0.6776
same,US24 (P09700) protein level,"timepoint 24, DE",0.62
same,US34 (P09709) protein level,"timepoint 24, DE",0.7981
same,gB (P06473) protein level,"timepoint 24, DE",0.1137
same,IRS1 (P09715) protein level,"timepoint 24, IE",0.3939
same,TRS1 (P09695) protein level,"timepoint 24, IE",0.2642
same,UL13 (P16755) protein level,"timepoint 24, IE",2.055
same,UL36 (P16767) protein level,"timepoint 24, IE",1.41
same,UL37 (P16778) protein level,"timepoint 24, IE",1.032
same,UL122 (P19893) protein level,"timepoint 24, IE",0.05997
same,UL123 (P13202) protein level,"timepoint 24, IE",0.9831
same,CVC1 (P16799) protein level,"timepoint 24, L",0.06119
same,IR11 (P16809) protein level,"timepoint 24, L",0.1044
same,MCP (P16729) protein level,"timepoint 24, L",0.004968
same,SCP (Q7M6N6) protein level,"timepoint 24, L",0.004248
same,TRM2 (P16792) protein level,"timepoint 24, L",0.01981
same,UL22A (P16845) protein level,"timepoint 24, L",0.04382
same,UL25 (P16761) protein level,"timepoint 24, L",0.03889
same,UL29 (P16764) protein level,"timepoint 24, L",0.8336
same,UL31 (P16848) protein level,"timepoint 24, L",0.3279
same,UL43 (P16781) protein level,"timepoint 24, L",0.06088
same,UL52 (P16793) protein level,"timepoint 24, L",0.01567
same,UL80 (P16753) protein level,"timepoint 24, L",0.0363
same,UL82 (P06726) protein level,"timepoint 24, L",0.1843
same,UL88 (P16731) protein level,"timepoint 24, L",0.03831
same,UL94 (P16800) protein level,"timepoint 24, L",0.08626
same,UL99 (P13200) protein level,"timepoint 24, L",0.0296
same,UL103 (P16734) protein level,"timepoint 24, L",0.3578
same,UL117 (P16770) protein level,"timepoint 24, L",0.4362
same,gH (P12824) protein level,"timepoint 24, L",0.04925
same,gL (P16832) protein level,"timepoint 24, L",0.03727
same,gM (P16733) protein level,"timepoint 24, L",0.03485
same,gN (P16795) protein level,"timepoint 24, L",0.1564
same,IR12 (P16810) protein level,"timepoint 24, LL",0.06811
same,TRX1 (P16783) protein level,"timepoint 24, LL",0.0077
same,TRX2 (P16728) protein level,"timepoint 24, LL",0.005245
same,UL24 (P16760) protein level,"timepoint 24, LL",0.1137
same,UL40 (P16780) protein level,"timepoint 24, LL",0.6403
same,UL47 (P16784) protein level,"timepoint 24, LL",0.008892
same,UL69 (P16749) protein level,"timepoint 24, LL",0.2203
same,UL70 (P17149) protein level,"timepoint 24, LL",0.1882
same,UL83 (P06725) protein level,"timepoint 24, LL",0.04505
same,UL132 (P69338) protein level,"timepoint 24, LL",0.1044
same,US15 (P09718) protein level,"timepoint 24, LL",1.318
same,CVC2 (P16726) protein level,"timepoint 48, DE",0.02711
same,DBP (P17147) protein level,"timepoint 48, DE",0.3215
same,HELI (P16736) protein level,"timepoint 48, DE",0.633
same,IR01 (P09710) protein level,"timepoint 48, DE",0.3157
same,NEC2 (P16791) protein level,"timepoint 48, DE",0.07071
same,RIR1 (P16782) protein level,"timepoint 48, DE",0.1157
same,TRM1 (P16724) protein level,"timepoint 48, DE",0.1031
same,UL4 (P17146) protein level,"timepoint 48, DE",0.07128
same,UL26 (P16762) protein level,"timepoint 48, DE",0.08021
same,UL32 (P08318) protein level,"timepoint 48, DE",0.02022
same,UL34 (P16812) protein level,"timepoint 48, DE",0.07906
same,UL35 (P16766) protein level,"timepoint 48, DE",0.007792
same,UL38 (P16779) protein level,"timepoint 48, DE",0.8139
same,UL44 (P16790) protein level,"timepoint 48, DE",0.08914
same,UL48 (P16785) protein level,"timepoint 48, DE",0.03443
same,UL54 (P08546) protein level,"timepoint 48, DE",0.7178
same,UL71 (P16823) protein level,"timepoint 48, DE",0.3459
same,UL78 (P16751) protein level,"timepoint 48, DE",0.7134
same,UL84 (P16727) protein level,"timepoint 48, DE",0.07575
same,UL95 (P16801) protein level,"timepoint 48, DE",0.1437
same,UL96 (P16787) protein level,"timepoint 48, DE",0.2583
same,UL97 (P16788) protein level,"timepoint 48, DE",0.1726
same,UL98 (P16789) protein level,"timepoint 48, DE",0.3796
